Results reported in patent US20230037448A1, “FLUORINATED QUINOLINE AND QUINOXALINE DERIVATIVES AS DIHYDROOROTATE DEHYDROGENASE (DHODH) INHIBITORS FOR THE TREATMENT OF CANCER, AUTOIMMUNE AND INFLAMMATORY DISEASES” (Janssen Biotech, Inc., priority 2019, published 2023).

Legend:
human DHODH = target: T1, human DHODH (Homo sapiens, UniProt Q02127); assay: DHODH Enzymatic Assay; format: biochemical; details: purified human DHODH; DCIP absorbance, end-point mode
T1 construct: purchased Proteros PR-0044
T1 sequence (Q02127 whole entry): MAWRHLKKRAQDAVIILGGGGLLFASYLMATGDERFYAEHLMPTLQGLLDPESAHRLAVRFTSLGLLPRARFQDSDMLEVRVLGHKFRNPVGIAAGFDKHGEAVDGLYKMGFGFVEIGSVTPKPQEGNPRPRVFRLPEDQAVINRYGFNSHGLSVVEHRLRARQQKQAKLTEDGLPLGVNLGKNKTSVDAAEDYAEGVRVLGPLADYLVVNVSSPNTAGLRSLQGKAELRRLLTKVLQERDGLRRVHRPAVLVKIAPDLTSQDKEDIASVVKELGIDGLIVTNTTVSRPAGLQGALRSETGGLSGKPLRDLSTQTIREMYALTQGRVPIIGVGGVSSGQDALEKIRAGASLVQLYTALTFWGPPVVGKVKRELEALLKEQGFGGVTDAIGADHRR
Experimental: To detect DHODH enzyme activities, dichloroindophenol (DCIP) is added as the final electron acceptor in the assay. DCIP can accept electrons from the reduced coenzyme Q generated in the assay, or from dihydroorotate (DHO) via FMN by binding presumably to the ubiquinone pocket. DCIP solutions are blue, with an intense absorbance around 600 nm, but becomes colorless upon reduction (J. Biol. Chem. (1986) 261, 11386). The assay buffer contained […], pH 7.5, 150 mM NaCl, 0.5 mM EDTA, and 0.1% Triton X-100 in MilliQ water. Substrate consisting of 20 mM DHO, 5 mM CoQ6, and 1 mM DCIP in assay buffer, initiates the reaction. The assay is run in end-point mode by quenching the reaction with the potent DHODH inhibitor brequinar. Absorbance measurements were obtained using the BMG Phera Star plate-reading spectrophotomer. Purified human DHODH was purchased from Proteros (cat. No. PR-0044). Chemicals were purchased from Sigma-Aldrich, Teknova, and Avanti Polar Lipids. Liquid handling was performed using Labcyte Echo and Formulatrix Tempest.

MOLM-13 cells = assay: MOLM-13 Cellular Assay; format: cell-based; details: Homo sapiens, MOLM-13, 72 h, 72 hours exposure, cell viability by CellTiter-Glo
Experimental: MOLM-13 cells were obtained from DSMZ and were maintained in RPMI 1640+Glutamax+25 mM HEPES (Invitrogen, catalog number 72400) supplemented with 10% heat inactivated fetal bovine serum (FBS; Invitrogen, catalog number 16140). The day prior to assay set-up, cells were pelleted, resuspended in fresh media, counted, and cells were plated at 0.4×10^6 cell/mL in a T150 flask. On the day of the assay, cells were pelleted, resuspend in fresh media, counted, and seeded at 5,000 cells/well in white opaque 96-well tissue culture treated microplates (Perkin Elmer, catalog number 6005680). Cells were exposed to different concentrations of test compounds at 37° C., 5% CO2 for 72 hours immediately after seeding. Cell viability was acquired on a Perkin Elmer Envision 2104 multilabel reader using the CellTiter-Glo assay (Promega) according to the manufacturer's instructions.

IC50 (human DHODH) [nM]	IC50 (MOLM-13 cells) [nM]	SMILES
12	> 100	CCn1c(CO)nn(-c2cc3c(C(C)C)cc(-c4c(C)cnc(O)c4C)nc3cc2F)c1=O [Example 19, 4-Ethyl-2-(7-fluoro-2-(2-hydroxy-3,5-dimethylpyridin-4-yl)-4-isopropylauinolin-6-yl)-5-(hydroxymethyl)-2,4-dihydro-3H-1,2,4-triazol-3-one]
730	> 100	CCn1c(CO)nn(-c2cc3c(C(C)C)cc(C4CCOCC4)nc3cc2F)c1=O [Example 20, 4-Ethyl-1-(7-fluoro-4-isopropyl-2-(tetrahydro-2H-pyran-4-yl)quinolin-6-yl)-3-(hydroxymethyl)-1H-1,2,4-triazol-5 (4H)-ene]
4.6	5	CCn1c(CO)nn(-c2cc3c(C(C)C)cc(-c4ccccc4C)[n+]([O-])c3cc2F)c1=O [Example 21, 6-(4-Ethyl-3-(hydroxymethyl)-5-oxo-4,5-dihydro-1H-1,2,4-triazol-1-yl)-7-fluoro-4-isopropyl-2-(o-tolyl)quinoline 1-oxide]
3.9	> 100	CCn1c(CO)nn(-c2cc3c(C(C)C)cc(-c4ccnc(O)c4C)nc3cc2F)c1=O [Example 22, 4-Ethyl-1-(7-fluoro-2-(2-hydroxy-3-methylpyridin-4-yl)-4-isopropylquinolin-6-yl)-3-(hydroxymethyl)-1H-1,2,4-triazol-5 (4H)-one]
14	9	CCn1c(CO)nn(-c2cc3c(C(C)C)cc(-c4c[nH]nc4C(F)(F)F)nc3cc2F)c1=O [Example 23, 4-Ethyl-1-(7-fluoro-4-isopropyl-2-(3-(trifluoromethyl)-pH-pyrazol-4-yl)quinolin-6-yl)-3-(hydroxymethyl)-1H-1,2,4-triazol-5 (4H)-one]
33	> 100	CCn1c(CO)nn(-c2cc3c(C(C)C)cc(-c4cc(O)ncc4C)nc3cc2F)c1=O [Example 24, 4-Ethyl-1-(7-fluoro-2-(2-hydroxy-5-methylpyridin-4-yl)-4-isopropylquinolin-6-yl)-3-(hydroxymethyl)-1H-1,2,4-triazol-5 (4H)-one]
11	6	CCn1c(CO)nn(-c2cc3c(C(C)C)cc(-c4c(Cl)c(O)nn4C)nc3cc2F)c1=O [Example 25, 2-(2-(4-Chloro-3-hydroxy-1-methyl-1H-pyrazol-5-yl)-7-fluoro-4-isopropylquinolin-6-yl)-4-ethyl-5-(hydroxymethyl)-2,4-dihydro-3H-1,2,4-triazol-3-one]
13	7	CCn1c(CO)nn(-c2cc3c(C(C)C)cc(-c4c(Cl)c(OC)nn4C)nc3cc2F)c1=O [Example 26, 2-(2-(4-Chloro-3-methoxy-1-methyl-1H-pyrazol-5-yl)-7-fluoro-4-isopropylauinolin-6-yl)-4-ethyl-5-(hydroxymethyl)-2,4-dihydro-3H-1,2,4-triazol-3-one]
0.7	6	CCn1c(CO)nn(-c2cc3c(C(C)C)cc(-c4c(C(F)(F)F)n[nH]c4Cl)nc3cc2F)c1=O [Example 27, 1-(2-(5-Chloro-3-(trifluoromethyl)-1H-pyrazol-4-yl)-7-fluoro-4-isopropylquinolin-6-yl)-4-ethyl-3-(hydroxymethyl)-1H-1,2,4-triazol-5 (4H)-one]
3	2	Cc1n[nH]c(C(F)(F)F)c1-c1cc(C(C)C)c2cc(-c3nc(CO)n(C)n3)c(F)cc2n1 [Example 28, (3-(7-Fluoro-4-isopropyl-2-(3-methyl-5-(trifluoromethyl)-pH-pyrazol-4-yl)quinolin-6-yl)-1-methyl-1H-1,2,4-triazol-5-yl)methanol]
1	0.36	Cc1n[nH]c(C(F)(F)F)c1-c1cc(C(C)C)c2cc(-c3nc(C(C)O)n(C)n3)c(F)cc2n1 (stereo not drawn) [Example 29, 1-(3-(7-Fluoro-4-isopropyl-2-(3-methyl-5-(trifluoromethyl)-1H-pyrazol-4-yl)quinolin-6-yl)-1-methyl-1H-1,2,4-triazol-5-yl)ethan-1-ol]
1.2	2	Cc1n[nH]c(Cl)c1-c1cc(C(C)C)c2cc(-c3nc(CO)n(C)n3)c(F)cc2n1 [Example 30, (3-(2-(5-Chloro-3-methyl-1H-pyrazol-4-yl)-7-fluoro-4-isopropylauinolin-6-yl)-1-methyl-1H-1,2,4-triazol-5-yl)methanol]
1.6	0.83	Cc1n[nH]c(Cl)c1-c1cc(C(C)C)c2cc(-c3nc(C(C)O)n(C)n3)c(F)cc2n1 (stereo not drawn) [Example 31, 1-(3-(2-(5-Chloro-3-methyl-1H-pyrazol-4-yl)-7-fluoro-4-isopropylauinolin-6-yl)-1-methyl-1H-1,2,4-triazol-5-yl)ethan-1-ol]
1.2	3	Cc1n[nH]c(Cl)c1-c1cc(C(C)C)c2cc(-c3cn(C)c(CO)n3)c(F)cc2n1 [Example 32, (4-(2-(5-Chloro-3-methyl-1H-pyrazol-4-yl)-7-fluoro-4-isopropylauinolin-6-yl)-1-methyl-1H-imidazol-2-yl)methanol]
2	1	Cc1n[nH]c(C(F)(F)F)c1-c1cc(C(C)C)c2cc(-c3cn(C)c(CO)n3)c(F)cc2n1 [Example 33, (4-(7-Fluoro-4-isopropyl-2-(3-methyl-5-(trifluoromethyl)-1H-pyrazol-4-yl)quinolin-6-yl)-1-methyl-1H-imidazol-2-yl)methanol]
5.2	4	CCn1c(CO)nn(-c2cc3c(C(C)C)nc(-c4c(C)n[nH]c4C(F)(F)F)nc3cc2F)c1=O [Example 34, 4-Ethyl-2-(7-fluoro-4-isopropyl-2-(3-methyl-5-(trifluoromethyl)-1H-pyrazol-4-yl)quinazolin-6-yl)-5-(hydroxymethyl)-2,4-dihydro-3H-1,2,4-triazol-3-one]
4.7	4	CCn1c(CO)nn(-c2cc3c(C(C)C)cc(-c4c(C)ccnc4Cl)nc3cc2F)c1=O [Example 35, 1-(2-(2-Chloro-4-methylpyridin-3-yl)-7-fluoro-4-isopropylquinolin-6-yl)-4-ethyl-3-(hydroxymethyl)-1H-1,2,4-triazol-5 (4H)-one]
0.24	0.2	C=C(C)c1cc(-c2ccccc2C)nc2cc(F)c(-n3nc(CO)n(CC)c3=O)cc12 [Example 39, 4-Ethyl-1-(7-fluoro-4-(prop-1-en-2-Yl)-2-(o-tolyl)quinolin-6-yl)-3-(hydroxymethyl)-1H-1,2,4-triazol-5 (4H)-one]
